Source: patent US20250257034A1, “INDOLE DERIVATIVES AS SEROTONERGIC AGENTS USEFUL FOR THE TREATMENT OF DISORDERS RELATED THERETO” (priority 2023, published 2025)
pIC50: −log10 of the molar value. Like-named read-outs stand apart in the source and are kept apart here.

Legend:
[1] = Rat liver microsomes stability; assay type: in vitro ADME; conditions: for half-life at 2 μM / CLint scaled at 2 μM / microsomal CLint at 2 μM: male; for half-life at 2 μM / microsomal CLint at 2 μM: 2 μM compound; for CLint scaled at 2 μM: read-out: Scaled-up CLint; for microsomal CLint at 2 μM: rat, read-out: CLint (μL/min/mg protein)
Procedure: The objective of this study was to estimate in vitro metabolic stability of exemplary compounds of Formula (I) or a pharmaceutically acceptable salt, solvate, and/or prodrug thereof in pooled human, male rat, and male mouse liver microsomes. The concentrations of compounds in reaction systems were evaluated by LC-MS/MS for estimating the stability in pooled human, male rat, and male mouse liver microsomes. The in vitro intrinsic clearances of test compounds were determined as well.
A master solution in the “Incubation Plate” containing phosphate buffer, ultra-pure H2O, MgCl2 solution and liver microsomes was made according to Table 33. The mixture was pre-warmed at 37° C. water bath for 5 minutes.
40 μL of 10 mM nicotinamide adenine dinucleotide phosphate (NADPH) solution was added to each well. The final concentration of NADPH was 1 mM. The negative control samples were prepared by replacing NADPH with 40 μL of ultra-pure H2O. Samples were prepared in duplicate. Negative controls were prepared in singlet.
The reaction was started with the addition of 4 μL of 200 μM exemplary test compounds of the disclosure or control compounds to each master solution to get the final concentration of 2 μM. This study was performed in duplicate.
Aliquots of 50 μL were taken from the reaction solution at 0, 15, 30, 45, and 60 minutes. The reaction solutions were stopped by the addition of 4 volumes of cold methanol with IS (100 nM alprazolam, 200 nM imipramine, 200 nM labet alol and 2 μM ketoprofen). Samples were centrifuged at 3,220 g for 40 minutes. Aliquot of 90 μL of the supernatant was mixed with 90 μL of ultra-pure H2O and then was used for LC-MS/MS analysis.
LC/MS analysis was performed for all samples from this study using a Shimadzu liquid chromatograph separation system equipped with degasser DGU-20A5R; solvent delivery unit LC-30AD; system controller SIL-30AC; column oven CTO-30A; CTC Analytics HTC PAL System. Mass spectrometric analysis was performed using a Triple Quad™ 5500 instrument.
All calculations were carried out using Microsoft Excel. Peak area ratios of test compound to internal standard (listed in the below table) were determined from extracted ion chromatograms.
All calculations were carried out using Microsoft Excel. Peak areas were determined from extracted ion chromatograms. The slope value, k, was determined by linear regression of the natural logarithm of the remaining percentage of the parent drug vs. incubation time curve.
The in vitro half-life (in vitro t1/2) was determined from the slope value:
Conversion of the in vitro t1/2(min) into the in vitro intrinsic clearance (in vitro CLint, in μL/min/mg proteins) was done using the following equation (mean of duplicate determinations): […]
A master solution in the “Incubation Plate” containing phosphate buffer, ultra-pure H2O, MgCl2 solution and liver microsomes was made according to Table 63. The mixture was pre-warmed at 37° C. water bath for 5 minutes.
40 μL of 10 mM NADPH solution was added to each well. The final concentration of NADPH was 1 mM. The negative control samples were prepared by replacing NADPH with 40 μL of ultra-pure H2O. Samples were prepared in duplicate. Negative controls were prepared in singlet.
Conversion of the in vitro t1/2(min) into the in vitro intrinsic clearance (in vitro C Lt, in μL/min/mg proteins) was done using the following equation (mean of duplicate determinations): […]

human 5-HT1A receptor = molecular target: T1, human 5-HT1A receptor (Homo sapiens, UniProt P08908); test: Human 5-HT1A radioligand binding assay ([3H]-8-Hydroxy-DPAT); set-up: expressed in transfected cells; host or cells: HTR1A&Gα15-CHO
T1 sequence (P08908 1-422): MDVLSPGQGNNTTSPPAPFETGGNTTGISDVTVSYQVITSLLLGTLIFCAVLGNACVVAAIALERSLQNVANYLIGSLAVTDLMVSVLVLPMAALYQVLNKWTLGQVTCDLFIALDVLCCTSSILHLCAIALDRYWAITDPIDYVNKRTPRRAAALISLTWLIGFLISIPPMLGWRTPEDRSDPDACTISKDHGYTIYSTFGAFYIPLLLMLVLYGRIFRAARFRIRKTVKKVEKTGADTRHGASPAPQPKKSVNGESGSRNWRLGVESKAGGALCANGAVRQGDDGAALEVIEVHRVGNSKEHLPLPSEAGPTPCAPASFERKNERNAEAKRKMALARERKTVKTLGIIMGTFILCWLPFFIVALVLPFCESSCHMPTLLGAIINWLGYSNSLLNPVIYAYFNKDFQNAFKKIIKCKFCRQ
Procedure: The objective of this study was to evaluate the binding properties of test compounds on 5-hydroxytryptamine receptor 1A (5-HT1A).
1. The assay buffer was prepared following Table 21 below.
2. 8 doses of reference and test compounds were prepared starting from 10 mM stock solution as required by 5-fold serial dilutions with 100% (v/v) DMSO.
3. UniFilter-96 GF/B plate was pretreated: • i. 50 μl/well of 0.5% (v/v) PEI was added to UniFilter-96 G F/B plates. The plates were sealed and incubated at 4° C. for 3 hrs. • ii. After incubation, the plates were washed 3 times with ice-cold wash buffer (50 mM Tris, pH7.4).
4. Assay plate was prepared: • i. Cell membrane was diluted with assay buffer and 100 μl/well was added to 96 round well plates to reach a concentration of 20 μg/well. • ii. 8 concentrations of reference or test compounds were prepared and 50 μl/well was added to 96 round deep well plates. • iii. [3H]-8-Hydroxy-DPAT was diluted with assay buffer to 2 nM (4×final concentration) and 50 μl/well was added to 96 round well plates.
5. The plate was centrifuged at 1000 rpm for 30 secs and then agitated at 600 rpm, R.T. for 5 min.
6. The plates were sealed, and the plate was incubated at 27° C. for 90 min.
7. The incubation was stopped by vacuum filtration onto GF/B filter plates followed by 4 times washing with ice-cold wash buffer (50 mM Tris, pH7.4).
9. The filter plates were sealed and 40 μl/well of scintillation cocktail was added.
10. The plate was read by using a Microbeta^2 microplate counter.
1. For reference and test compounds, the results were expressed as % Inhibition, using the normalization equation: N=100-100x(U-C2)/(C1-C2), where U is the unknown value, C1 is the average of high controls, and C2 is the average of low controls.
2. The IC50 was determined by fitting percentage of inhibition as a […] of compound concentrations with Hill equation using XLfit.
The objective of this study was to evaluate the binding properties of test compounds on 5-hydroxytryptamine receptor 1A (5-HTA).
1. The assay buffer was prepared following Table 50 below.
3. UniFilter-96 G FIB plate was pretreated: • i. 50 μl/well of 0.5% (v/v) PEI was added to UniFilter-96 G FIB plates. The plates were sealed and incubated at 4° C. for 3 hrs. • ii. After incubation, the plates were washed 3 times with ice-cold wash buffer (50 mM Tris, pH7.4).
6. The plates were sealed and the plate was incubated at 27° C. for 90 min.

[2] = pooled liver microsomes, rat liver microsomes, 0.5 mg/mL
[3] = pooled liver microsomes, rat liver microsomes
[4] = rat liver microsomes, With Cofactors, 0 min
[5] = rat liver microsomes, With Cofactors, 30 min
[6] = rat liver microsomes, With Cofactors, 60 min
[7] = rat liver microsomes, Without Cofactors, 0 min
[8] = rat liver microsomes, Without Cofactors, 30 min
[9] = rat liver microsomes, Without Cofactors, 60 min
[10] = liver microsomes, Rat liver microsomes, 0.5 mg/mL microsomes, 1 mM NADPH
[11] = Rat liver microsomes, 0.5 mg/mL microsomes, 1 mM NADPH, 37° C

COc1ccc2[nH]cc(CCN3CC[C@@H](OC)C3)c2c1 [(R) I-66, (R)-5-methoxy-3-(2-(3-methoxypyrrolidin-1-yl)ethyl)-1H-indole]
half-life at 2 μM [1, 2]: 17.8 min | CLint scaled at 2 μM [1, 3]: 139 mL/min/kg | microsomal CLint at 2 μM [1, 2]: 77.7 µL/min/mg | Predicted hepatic CL ([1]; rat liver microsomes): 39.53 mL/min/kg | Remaining Percentage (%) [1, 4]: 100.00% | Remaining Percentage (%) [1, 5]: 22.22% | Remaining Percentage (%) [1, 6]: 9.71% | Remaining Percentage (%) [1, 7]: 100.00% | Remaining Percentage (%) [1, 8]: 102.61% | Remaining Percentage (%) [1, 9]: 100.00% | pIC50 (human 5-HT1A receptor): 7.66

COc1ccc2[nH]cc(CCN3CC[C@@H](OC(F)F)C3)c2c1 [(R) I-67, (R)-3-(2-(3-(Difluoromethoxy)pyrrolidin-1-yl)ethyl)-5-methoxy-1H-indole]
half-life at 2 μM [1, 2]: 10.5 min | CLint scaled at 2 μM [1, 3]: 236 mL/min/kg | microsomal CLint at 2 μM [1, 2]: 132 µL/min/mg | Predicted hepatic CL ([1]; rat liver microsomes): 44.73 mL/min/kg | Remaining Percentage (%) [1, 4]: 100.00% | Remaining Percentage (%) [1, 5]: 15.35% | Remaining Percentage (%) [1, 6]: 1.93% | Remaining Percentage (%) [1, 7]: 100.00% | Remaining Percentage (%) [1, 8]: 91.21% | Remaining Percentage (%) [1, 9]: 80.30% | pIC50 (human 5-HT1A receptor): 7.66

COc1ccc2[nH]cc(CCN3CC[C@H](OC(F)F)C3)c2c1 [(S) I-67, (S)-3-(2-(3-(Difluoromethoxy)pyrrolidin-1-yl)ethyl)-5-methoxy-1H-indole]
half-life at 2 μM [1, 2]: < 4.51 min | CLint scaled at 2 μM [1, 3]: > 550 mL/min/kg | microsomal CLint at 2 μM [1, 2]: > 307 µL/min/mg | Predicted hepatic CL ([1]; rat liver microsomes): >50.17 mL/min/kg | Remaining Percentage (%) [1, 4]: 100.00% | Remaining Percentage (%) [1, 5]: 0.00% | Remaining Percentage (%) [1, 6]: 0.00% | Remaining Percentage (%) [1, 7]: 100.00% | Remaining Percentage (%) [1, 8]: 99.06% | Remaining Percentage (%) [1, 9]: 96.86% | pIC50 (human 5-HT1A receptor): 8.30

[2H]C([2H])([2H])N(CCc1c[nH]c2ccc(SC)cc12)C([2H])([2H])[2H] [Compound I-1, N,N-Bis(methyl-d3)-2-(5-(methylthio)-1H-indol-3-yl)ethan-1-amine]
Predicted hepatic CL ([1]; Rat liver microsomes): >50.17 mL/min/kg | microsomal CLint at 2 μM [1, 10]: > 307 µL/min/mg | half-life at 2 μM [1, 11]: < 4.51 min | CLint scaled at 2 μM ([1]; Rat liver microsomes): > 550 mL/min/kg | pIC50 (human 5-HT1A receptor): 8.41

CCN(CC)CCc1c[nH]c2ccc(SC)cc12 [Compound I-12, N,N-Diethyl-2-(5-(methylthio)-1H-indol-3-yl)ethan-1-amine]
Predicted hepatic CL ([1]; Rat liver microsomes): 30.14 mL/min/kg | microsomal CLint at 2 μM [1, 10]: 37 µL/min/mg | half-life at 2 μM [1, 11]: 37.4 min | CLint scaled at 2 μM ([1]; Rat liver microsomes): 66.4 mL/min/kg | pIC50 (human 5-HT1A receptor): 8.70

CCN(C)CCc1c[nH]c2ccc(SC)cc12 [Compound I-13, N-Ethyl-N-methyl-2-(5-(methylthio)-1H-indol-3-yl)ethan-1-amine]
Predicted hepatic CL ([1]; Rat liver microsomes): 42.35 mL/min/kg | microsomal CLint at 2 μM [1, 10]: 102 µL/min/mg | half-life at 2 μM [1, 11]: 13.7 min | CLint scaled at 2 μM ([1]; Rat liver microsomes): 182 mL/min/kg | pIC50 (human 5-HT1A receptor): 8.70

CSc1ccc2[nH]cc(CCN(C(C)C)C(C)C)c2c1 [Compound I-17, N-Isopropyl-N-(2-(5-(methylthio)-1H-indol-3-yl)ethyl)propan-2-amine]
Predicted hepatic CL ([1]; Rat liver microsomes): 30.01 mL/min/kg | microsomal CLint at 2 μM [1, 10]: 36.7 µL/min/mg | half-life at 2 μM [1, 11]: 37.8 min | CLint scaled at 2 μM ([1]; Rat liver microsomes): 65.8 mL/min/kg | pIC50 (human 5-HT1A receptor): 7.34

CSc1ccc2[nH]cc(CCN(C)C(C)C)c2c1 [Compound I-19, N-Methyl-N-(2-(5-(methylthio)-1H-indol-3-yl)ethyl)propan-2-amine]
Predicted hepatic CL ([1]; Rat liver microsomes): 16.73 mL/min/kg | microsomal CLint at 2 μM [1, 10]: 13.4 µL/min/mg | half-life at 2 μM [1, 11]: 103 min | CLint scaled at 2 μM ([1]; Rat liver microsomes): 24 mL/min/kg | pIC50 (human 5-HT1A receptor): 7.77

COc1ccc2[nH]cc(CCN(C)CCOC(F)F)c2c1 [Compound I-71, 2-(Difluoromethoxy)-N-(2-(5-methoxy-1H-indol-3-yl)ethyl)-N-methylethan-1-amine]
half-life at 2 μM [1, 2]: 9.7 min | CLint scaled at 2 μM [1, 3]: 256 mL/min/kg | microsomal CLint at 2 μM [1, 2]: 143 µL/min/mg | Predicted hepatic CL ([1]; rat liver microsomes): 45.41 mL/min/kg | Remaining Percentage (%) [1, 4]: 100.00% | Remaining Percentage (%) [1, 5]: 10.63% | Remaining Percentage (%) [1, 6]: 1.37% | Remaining Percentage (%) [1, 7]: 100.00% | Remaining Percentage (%) [1, 8]: 96.79% | Remaining Percentage (%) [1, 9]: 100.64% | pIC50 (human 5-HT1A receptor; [3H]-8-Hydroxy-DPAT displacement (Table 51), read-out: h5-HT1A, IC50): 7.29

CN(CCOC(F)F)CCc1c[nH]c2ccccc12 [Compound I-130, N-(2-(1H-Indol-3-yl)ethyl)-2-(difluoromethoxy)-N-methylethan-1-amine]
half-life at 2 μM [1, 2]: < 4.51 min | CLint scaled at 2 μM [1, 3]: > 550 mL/min/kg | microsomal CLint at 2 μM [1, 2]: > 307 µL/min/mg | Predicted hepatic CL ([1]; rat liver microsomes): >50.17 mL/min/kg | Remaining Percentage (%) [1, 4]: 100.00% | Remaining Percentage (%) [1, 5]: 0.00% | Remaining Percentage (%) [1, 6]: 0.00% | Remaining Percentage (%) [1, 7]: 100.00% | Remaining Percentage (%) [1, 8]: 105.21% | Remaining Percentage (%) [1, 9]: 103.65%
